How the values were obtained:
[1] = test system: Macrophage (primary cells); test: In vitro cytotoxicity of Ara-N3 probe (Annexin V/IP, MTS); assay type: cell-based, human; conditions: tested 1, 10, 50 and 100 mM, 24 h and 48 h
Description: (§1) The cell lines (as detailed below in the table) were provided by Inserm/Aquiderm transfer cell. Cell culture of cell lines and cell cytoxicity tests were also carried out by Aquiderm transfer cell, in the laboratory of INSERM U1035.
Human mononucleated cells were isolated from peripheral blood from 2 different healthy donors by convention established with the Etablissement Frangais du Sang d'Aquitaine. The technique used was Ficoll gradient isolation. Briefly, the blood diluted in a phosphate buffered saline solution (PBS) was deposited on a sucrose solution (Ficoll, Eurobio) and centrifuged in order to separate the different blood elements. Between Ficoll and plasma was established a cell ring composed of monocytes and lymphocytes. This was recovered and washed in PBS for counting on the Malassez cell.
Human CD14+monocytes were isolated from […] by magnetic beads coupled to an anti-CD14 antibody (Miltenyi Biotech). The mononuclear cells were incubated for 15 minutes, in PBS buffer, in the presence of a determined concentration of beads depending on the number of cells. […]
Briefly, after incubation of the cells with the Ara-N3 probe at different concentrations and at different times (24 h and 48 h), the cells were recovered, trypsinized (for adherent cells) and washed in PBS. […] They were then directly analyzed by cytometry after adding 100 μL of labeling buffer. […]

[2] = test system: A431 (tumoral cell lines); test: as above; assay type: cell-based, human; conditions: tested 1, 10, 50 and 100 mM, 24 h and 48 h
Description: as §1
(§2) The cells were cultivated in an oven at 37° C., 5% CO2 and 95% humidity, in different culture media: • either in RPMI 1640 medium supplemented with 10% of decomplemented FCS (Fetal calf serum) and antibiotics penicillin (100 IU/ml) and […] (100 μg/ml), for the pair Monocytes/THP1. • either in DMEM medium supplemented with 10% of decomplemented FCS and antibiotics penicillin (100 IU/ml) and […] (100 μg/ml) for the Hacat/A431 couple.
(§3) All the cells were seeded in culture plates, either in 96 wells at the density of 1*10^4 cells/well for the MTS proliferation test, either in 24 wells at the density of 5*10^4 cells/well for the Annexin V test/IP test. Then the cells were incubated at 37° C. and 5% CO2 for 24 hours. After 24 hours, the culture medium was changed in all the wells and the cells adhered to the bottom of the wells were rinsed twice in PBS (Eurobio) or centrifuged and washed twice in PBS for the cells in suspension, before being exposed to the Ara-N3 probe at different concentrations: 1, 10, 50 and 100 mM. The cells were incubated at 37° C. and 5% CO2 for 48 hours.
(§4) This test requires the use of an Annexin V-APC kit (Biolegend) for the detection of apoptosis/necrosis. This test uses the ability of Annexin V to bind to membrane phosphatidylserines (PS) and the intercalating properties of propidium iodide (PI) on DNA.
(§5) Briefly, after incubation of the cells with the Ara-N3 probe at different concentrations and at different times (24 h and 48 h), the cells were recovered, trypsinized (for adherent cells) and washed in PBS. After counting in trypan blue on the Malassez cell, the cells were incubated in a labeling buffer (100 μL) in the presence of Annexin V-APC (5 μL) and of IP (10 μL) for 15 minutes at room temperature and in the dark. They were then directly analyzed by cytometry after adding 100 μL of labeling buffer. […]

[3] = test system: HACAT (immortalized cell lines); test: as above; assay type: cell-based, human; conditions: tested 1, 10, 50 and 100 mM, 24 h and 48 h
Description: as §1, §2, §3, §4, §5

[4] = test system: THP1 (tumoral cell lines); test: as above; assay type: cell-based, human; conditions: tested 1, 10, 50 and 100 mM, 24 h and 48 h
Description: as §1, §2, §3, §4, §5

[5] = test system: HME1 (immortalized cell lines); test: as above; assay type: cell-based
Description: as §1, §3, §4
(§6) Briefly, after incubation of the cells with the Ara-N3 probe at different concentrations and at different times (24 h and 48 h), the cells were recovered, trypsinized (for adherent cells) and washed in PBS. After counting in trypan blue on the Malassez cell, the cells were incubated in a labeling buffer (100 μL) in the presence of Annexin V-APC (5 μL) and of IP (10 μL) for 15 minutes at room temperature and in the dark. They were then directly analyzed by cytometry after adding 100 μL of labeling buffer.
(§7) The non-toxic concentrations of Ara-N3 with respect to the tested cells are gathered in the following Table 5.

[6] = test system: MDA MB175 (tumoral cell lines); test: as above; assay type: cell-based
Description: as §1, §3, §4, §6, §7

[7] = test system: MDA MB231 (tumoral cell lines); test: as above; assay type: cell-based
Description: as §1, §3, §4, §6, §7

[8] = test system: MDA MB453 (tumoral cell lines); test: as above; assay type: cell-based
Description: as §1, §3, §4, §6, §7

[9] = In vivo non-toxicity of Ara-N3 in nude mice; parameters: species or system NMRI nude mice
Description: Ten Female NMRI nude mice (6 weeks old, Janvier, Le Genest-Saint Isle, France) were enrolled in this assay. Three were injected intravenously every other day for 8 days (4 injections) with 50 mg/mouse/injection of Ara-N3 for 200 mg cumulative dose, and three other mice were treated for 8 days with 50 mg of Ara-N3 in 8 mL of water consumed per day, for 400 mg cumulative dose. As control groups, four tumor-bearing mice were not treated.
Mice were euthanized and dissected at the end of treatment. Heart, lung, brain, uterus, ovaries, kidney, skeletal muscle, spleen, pancreas, abdominal fat, liver, skin, stomach, colon, caecum, small intestine, mesenteric lymph nodes, axillary lymph nodes, brachial lymph nodes and total blood were harvested and frozen for analyses.

[N-]=[N+]=NC[C@H]1OC(O)[C@@H](O)[C@@H]1O (stereo partly drawn) [Ara-N3, 5-azido-5-deoxy-D-arabinofuranose]
Non-toxic concentration of Ara-N3 [1]: >10 mM
Non-toxic concentration of Ara-N3 [2]: >10 mM
Non-toxic concentration of Ara-N3 [3]: >10 mM
Non-toxic concentration of Ara-N3 [4]: >10 mM
Non-toxic concentration of Ara-N3 [5]: >1 mM
Non-toxic concentration of Ara-N3 [6]: >1 mM
Non-toxic concentration of Ara-N3 [7]: >1 mM
Non-toxic concentration of Ara-N3 [8]: >1 mM
water consumption of the mice ([9]; Ara-N3 in drinking water up to 6.25 mg/mL, 8 days): did not alter the water consumption
Non-toxic concentration of Ara-N3 ([9]; In vivo, Nude mouse (mice)): >1 mM
body weight loss ([9]; in drinking water, 50 mg in 8 mL per day for 8 days, 400 mg cumulative dose): did not induce any body weight loss
body weight loss ([9]; intravenous injections, 50 mg/mouse/injection every other day for 8 days, 200 mg cumulative dose): did not induce any body weight loss

Source: patent US12517131B2, “Methods for labeling eukaryotic cells from a multicellular organism as well as for treating and/or diagnosing a cancer using modified monosaccharide compounds” (DIAMIDEX, priority 2019, dated 2026)
